The nature of assay [1]: Inhibition of Bacillus subtilis DNA polymerase 3.
Assay [2] is described as follows: Inhibition of Staphylococcus aureus R27 DNA polymerase 3C using activated calf thymus DNA as substrate in presence of dATP/dGTP/dCTP/[3H]dTTP measured for 20 mins.
In assay [3] the test system is Clostridioides difficile. Kind of assay: Antibacterial activity against Clostridium difficile by CLSI method. Format: functional.
In assay [4] the test system is Staphylococcus aureus. In words: Antibacterial activity against methicillin-resistant Staphylococcus aureus by CLSI guideline based method. The class given is functional.
The subject of a further assay is Streptococcus pyogenes. Kind of assay: Antibacterial activity against macrolide-resistant Streptococcus pyogenes by CLSI guideline based method. The class given is functional.
The subject of assay [5] is Enterococcus faecium. In words: Antibacterial activity against vancomycin-resistant Enterococcus faecium by CLSI guideline based method. The class given is functional.
The test system of assay [6] is Staphylococcus aureus. Kind of assay: Antibacterial activity against Staphylococcus aureus 133 incubated for 18 hrs by broth microdilution method. Conditions: Staphylococcus aureus, 133, 18 h. Format: functional. (Broth dilution looks for growth in wells or tubes with falling amounts of substance.)
The subject of assay [7] is Enterococcus faecalis. In words: Antibacterial activity against Enterococcus faecalis ICB 27159 infected in CFW1 mouse assessed as mouse survival at 5 mg/kg, iv administered at 30 mins post infection and measured over 5 days. Format: functional, organism-based.
For assay [8], the system named is Staphylococcus aureus. Kind of assay: Antibacterial activity against Staphylococcus aureus 133 infected in CFW1 mouse, iv administered at 30 mins post infection and measured over 5 days. The class given is functional. Conditions: Staphylococcus aureus, 133, iv.
The test system of assay [9] is Enterococcus faecalis. In words: Antibacterial activity against Enterococcus faecalis ICB 27159 incubated for 18 hrs under microaerophilic condition by broth microdilution method. Format: functional. Conditions: ICB 27159, 18 h.
Assay [10] has as its system Streptococcus pneumoniae. In words: Antibacterial activity against Streptococcus pneumoniae 1707/4 incubated for 18 hrs under microaerophilic condition by broth microdilution method. The class given is functional. As to conditions: 1707/4, 18 h.
The nature of assay [11]: Inhibition of bacterial DNA polymerase 3C using dATP/dCTP/dTTP/dGTP as substrate in presence of activated calf thymus DNA incubated for 15 mins and measured for 1 min by luciferase based enzymatic assay. Also noted: species or system Bacteria.
The subject of assay [12] is Clostridioides difficile. In words: Antibacterial activity against vancomycin-resistant Clostridium difficile by CLSI method. The class given is functional.
Assay [13] relates to Clostridioides difficile. Kind of assay: In vivo inhibition of Clostridium difficile ATCC 43255 infected in golden syrian hamster assessed as reduction in recurrence rate at 50 mg/kg, po bid for 7 days relative to control. Format: functional. Conditions: 168 h.
The subject of assay [14] is Clostridioides difficile. In words: Antibacterial activity against metronidazole-resistant Clostridium difficile by CLSI method. The class given is functional.
Assay [15] relates to Bacillus subtilis. Kind of assay: Antibacterial activity against Bacillus subtilis F2 incubated for overnight. Format: functional.
Assay [16] deals with Streptococcus pneumoniae. Kind of assay: Antibacterial activity against Streptococcus pneumoniae MCL5350 incubated for overnight. Format: functional.
The test system of assay [17] is Enterococcus faecium. Kind of assay: Antibacterial activity against Enterococcus faecium RLA1 incubated for overnight. Format: functional.
Assay [18] relates to Staphylococcus aureus. In words: Antibacterial activity against Staphylococcus aureus MB2865 incubated for overnight. Format: functional.
Assay [19] can be described thus: Inhibition of recombinant Staphylococcus aureus DNA polymerase 3C expressed in Escherichia coli BL21 cells assessed as assessed as reduction in [3H]dTTP incorporation in to activated calf thymus DNA using calf thymus DNA as substrate incubated for 30 mins by scintillation counting analysis.
Assay [20] deals with Bacillus subtilis. In words: Antibacterial activity against Bacillus subtilis ATCC BD54 incubated for 16 to 18 hrs by microplate reader analysis. Format: functional.
A short description of assay [21]: Inhibition of recombinant Bacillus subtilis DNA polymerase 3C expressed in Escherichia coli using activated calf thymus DNA as substrate after 10 mins in presence of dATP/dCTP/[3H]dTTP/dATP by liquid scintillation counting analysis.
The subject of assay [22] is Enterococcus faecium. Kind of assay: Antibacterial activity against vancomycin-resistant Enterococcus faecium incubated for 16 to 24 hrs by microplate reader analysis. The class given is functional.
The test system of assay [23] is Bacillus subtilis. In words: Antibacterial activity against Bacillus subtilis ATCC BD54 incubated for 16 to 24 hrs by microplate reader analysis. The class given is functional.
Assay [24] has as its system Enterococcus faecalis. Kind of assay: Antibacterial activity against Enterococcus faecalis ATCC 29212 incubated for 16 to 24 hrs by microplate reader analysis. The class given is functional.
The next assay concerns Escherichia coli. In words: Antibacterial activity against Escherichia coli J53 incubated for 16 to 24 hrs by microplate reader analysis. Format: functional.
The test system of assay [25] is Enterococcus faecium. In words: Antibacterial activity against Enterococcus faecium incubated for 16 to 24 hrs by microplate reader analysis. The class given is functional.
The test system of assay [26] is Staphylococcus aureus. In words: Antibacterial activity against methicillin-resistant Staphylococcus aureus B42876 incubated for 16 to 24 hrs by microplate reader analysis. Format: functional.
The test system of assay [27] is Staphylococcus aureus. Kind of assay: Antibacterial activity against Staphylococcus aureus ATCC 25923 incubated for 16 to 24 hrs by microplate reader analysis. The class given is functional.

Structures are written as SMILES. Values after ≈ are worked out from the molar mass of the structure shown. Active and inactive are the calls of the source. The rule behind the calls is not given here.

As to `CCc1cc(Nc2cc(O)nc(O)n2)ccc1C`, it took 1000 nM to reach half-maximal inhibition in [1] (IC50).

Take `CCc1cc(Nc2cc(Oc3ccc(Br)cc3)nc(N)n2)ccc1C`: in assay [2], the IC50 was 10000 nM.

Take `Cc1ncc([N+](=O)[O-])n1CCO` [METRONIDAZOLE]: in the assay with Clostridioides difficile [3], the MIC50 was 1 µg/mL (≈ 5.84 µM) and the MIC90 came to 4 µg/mL (≈ 23.4 µM).

For `CS(=O)(=O)CCOCc1csc(NC(=O)NCc2ccc(Cl)c(Cl)c2)n1`, the MIC90 in the assay on Staphylococcus aureus [4], with Streptococcus pyogenes and with Enterococcus faecium [5] was 1 to 8 µg/mL (≈ 2.28 to 18.2 µM) in each case.

`Cc1noc(C)c1C(=O)N(C)Cc1csc(NC(=O)NCc2cccc(F)c2)n1`: the MIC90 in the assay with Staphylococcus aureus [4], against Streptococcus pyogenes and against Enterococcus faecium [5] was 1 to 4 µg/mL (≈ 2.4 to 9.58 µM) throughout.

As for `CCc1cc(Nc2cc(=O)n(CC3CCN(C(=O)c4ccno4)CC3)c(=O)[nH]2)ccc1C`, the MIC was found to be 16 µg/mL (≈ 36.6 µM) against Staphylococcus aureus [6], 8 µg/mL (≈ 18.3 µM) against Enterococcus faecalis [9] and 8 µg/mL (≈ 18.3 µM) against Streptococcus pneumoniae [10]. The outcome in the assay with Enterococcus faecalis [7] was Active. It took a dose of 10 mg/kg to reach the 50% effect level in the assay with Staphylococcus aureus [8] (ED50). Besides, the half-maximal inhibitory concentration (IC50) in assay [11] came out at 100 nM.

In the case of `O=c1[nH]c(NCc2ccc(Cl)c(Cl)c2)nc2ncn(CCN3CCOCC3)c12` [IBEZAPOLSTAT], the MIC50 in the assay with Clostridioides difficile [12], against Clostridioides difficile [14] and in the assay with Clostridioides difficile [3] was 2 µg/mL (≈ 4.72 µM) each time. The MIC90 in the assay on Clostridioides difficile [12], in the assay on Clostridioides difficile [14] and in the assay with Clostridioides difficile [3] was 4 µg/mL (≈ 9.45 µM) each time. Moreover, the inhibition in vivo at 50 mg/kg with Clostridioides difficile [13] was determined as 40%.

As for `CCc1cc(Nc2nc(O)c3c[nH]nc3n2)ccc1C`, the MIC with Bacillus subtilis [15], against Streptococcus pneumoniae [16], against Enterococcus faecium [17] and with Staphylococcus aureus [18] was ≥ 9 µg/mL throughout. Also, in [19], the concentration for half-maximal inhibition (IC50) was determined as 71000 nM.

`COc1ccc(-c2cc(C(=O)N/N=C/c3cc(OC)c(OC)c(OC)c3)[nH]n2)cc1` displayed a minimal inhibitory concentration (MIC) against Bacillus subtilis [20] of 0.625 µg/mL (≈ 1.52 µM). The IC50 in assay [21] came out at 200 nM.

In the assay on Clostridioides difficile [3], `CN[C@H](CC(C)C)C(=O)N[C@H]1C(=O)N[C@@H](CC(N)=O)C(=O)N[C@H]2C(=O)N[C@H]3C(=O)N[C@H](C(=O)N[C@H](C(=O)O)c4cc(O)cc(O)c4-c4cc3ccc4O)[C@H](O)c3ccc(c(Cl)c3)Oc3cc2cc(c3O[C@@H]2O[C@H](CO)[C@@H](O)[C@H](O)[C@H]2O[C@H]2C[C@](C)(N)[C@H](O)[C@H](C)O2)Oc2ccc(cc2Cl)[C@H]1O` [VANCOMYCIN] displayed an MIC50 of 1 µg/mL (≈ 0.69 µM) and an MIC90 of 4 µg/mL (≈ 2.76 µM).

Turning to `CCc1cc(Nc2cc(=O)n(CCCCN3CCCCC3)c(=O)[nH]2)ccc1C`, the MIC in the assay on Enterococcus faecium [22] is 10 µg/mL (≈ 26 µM); in the assay with Bacillus subtilis [23], 10 µg/mL (≈ 26 µM); with Enterococcus faecalis [24], 20 µg/mL (≈ 52 µM); with Escherichia coli, > 20 µg/mL; with Enterococcus faecium [25], 20 µg/mL (≈ 52 µM); in the assay on Staphylococcus aureus [26], 40 µg/mL (≈ 104 µM). Also, 20 µg/mL (≈ 52 µM) was the least that counted as inhibitory in the assay with Staphylococcus aureus [27] (MIC). Further, the IC50 in [21] came out at 28 nM.

In the case of `COCCS(=O)(=O)Cc1csc(NC(=O)NCc2ccc(Cl)c(Cl)c2)n1`, the minimal inhibitory concentration (MIC) against Staphylococcus aureus [4], in the assay with Streptococcus pyogenes and against Enterococcus faecium [5] was 0.5 to 4 µg/mL (≈ 1.14 to 9.12 µM) each time.

As to `CCc1cc(Nc2cc(=O)n(CCCCO)c(=O)[nH]2)ccc1C`, the MIC is 2.5 µg/mL (≈ 7.88 µM) in the assay with Enterococcus faecium [22]; < 1.25 µg/mL in the assay with Bacillus subtilis [23]; 5 µg/mL (≈ 15.8 µM) against Enterococcus faecalis [24]; > 20 µg/mL in the assay on Escherichia coli; 2.5 µg/mL (≈ 7.88 µM) with Enterococcus faecium [25]; 5 µg/mL (≈ 15.8 µM) against Staphylococcus aureus [26]. In the assay with Staphylococcus aureus [27], this compound yielded an MIC of 5 µg/mL (≈ 15.8 µM). The IC50 in [21] came out at 63 nM.

A word on the IC50: it is the concentration at which inhibition is half-maximal. Broadly, the MIC50 is the lowest concentration that inhibits either 50% of growth or 50% of the strains tested, depending on the study. Low values mean higher susceptibility, high ones lower susceptibility. Broadly, the MIC90 is the lowest concentration that inhibits either 90% of growth or 90% of the strains tested, depending on the study. Lower therefore signals greater potency. What is called MIC is the least concentration at which growth counts as inhibited. High values mean a need for much substance, low ones inhibition by little substance. A word on the ED50: it is the dose at which the effect has come halfway, by size or by number of responders. Low values mean greater potency, high ones weaker potency. As a reminder, the inhibition in vivo is the change of the read-out against control, counted positive when it falls.

For the origin of these results see ChEMBL document CHEMBL4346728, “Discovery and development of DNA polymerase IIIC inhibitors to treat Gram-positive infections” (Bioorg Med Chem, 2019).
